What all share (assay): NCI tumour cell line growth inhibition, 48 h
For experiment [1], the system named is DMS-273.
In experiment [2] the test system is RXF 631.
In experiment [3] the test system is HOP-18.
Experiment [4] relates to DLD-1.
Experiment [5] deals with LXFL 529.
For experiment [6], the system named is DMS-114.
Experiment [7] relates to M19-MEL.
Experiment [8] concerns KM-20L2.
In experiment [9] the test system is XF498.

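Five compound concentrations were applied to cells in 96-well plates for 48 hours; endpoints were derived by simple linear interpolation of the resulting dose-response curve. GI50 marks 50% less growth.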 Active and inactive are the calls of the source. Rule as the data show it: active = GI50 up to about 1.1 µM and inactive = higher. Some results are limits rather than exact numbers.

Consider `Nc1nc(-c2ccccc2)cc(-c2ccccc2O)n1`, for which the GI50 is 32 µM (inactive) in [1]; 34.1 µM (inactive) in experiment [2]; > 100 µM (inactive) in experiment [3]; 23.9 µM (inactive) in experiment [4]; 30.8 µM (inactive) in experiment [5]; 35.2 µM (inactive) in experiment [6]. For the same compound, the GI50 is 43.1 µM (inactive) in experiment [7], 30.2 µM (inactive) in experiment [8] and > 100 µM (inactive) in experiment [9].

As to `CCCC/C=C1/CCC(CN(C)C)C1=O` (centres undefined), the GI50 in [1] was 2.71 µM (inactive); in experiment [2], 1.65 µM (inactive); in experiment [3], 2.22 µM (inactive); in experiment [4], 0.863 µM (active); in experiment [5], 0.625 µM (active); in experiment [6] it was 1.29 µM (inactive). In addition, the results for the GI50 in [7] and in experiment [8] were 1.41 µM (inactive) and 2.54 µM (inactive), respectively.

For `CCc1ccccc1NC(=O)/C(=N/O)C(C)=O`, the GI50 in experiment [1], in [2], in experiment [3], in experiment [4], in [5] and in experiment [6] was > 100 µM (inactive) each time. Also, the GI50 in experiment [7], in [8] and in [9] was > 100 µM (inactive) throughout.

As for `O=C(Cc1nc2ccccc2s1)C(=O)Nc1cccc(Cl)c1`, the GI50 in [1], in experiment [2], in experiment [4], in [5], in experiment [6] and in experiment [7] was > 100 µM (inactive) in each case. Further, the GI50 in experiment [8] and in [9] was > 100 µM (inactive) each time.

`COc1cc(CCCC(O)COc2cccc3c2C2(O)CCCCCC32)cc(OC)c1` (centres undefined): the GI50 in experiment [1] was 20.5 µM (inactive); in experiment [3] it was 16 µM (inactive); in [4], 20.1 µM (inactive); in experiment [5], 16.5 µM (inactive); in [6], 11.4 µM (inactive); in experiment [7], 17 µM (inactive). The figures for the GI50 in experiment [8] and in experiment [9] were 14.1 µM (inactive) and 19.9 µM (inactive), respectively.

Consider `COc1cccc(NC(=O)CC(=O)N2NC(C)C(/N=N/c3cccc(C(=O)O)c3)C2=O)c1` (centres undefined), for which the GI50 in experiment [1] was > 100 µM (inactive); in [2] it was > 100 µM (inactive); in [3], 17.9 µM (inactive); in experiment [4], > 100 µM (inactive); in [5] it was > 100 µM (inactive); in experiment [6] it was > 100 µM (inactive). The GI50 in [7] and in experiment [8] was > 100 µM (inactive) each time.

`Cc1nc2sccn2c1C(=O)NC(=O)Nc1ccc(Cl)cc1`: the GI50 is 74.1 µM (inactive) in experiment [1]; > 100 µM (inactive) in experiment [4]; > 100 µM (inactive) in experiment [5]; 50.5 µM (inactive) in experiment [6]; > 100 µM (inactive) in [7]; > 100 µM (inactive) in experiment [8]. Besides, the GI50 in [9] was 19.2 µM (inactive).

Turning to `CN(CN1C(=O)C2Cc3ccccc3CN2C1=O)c1ccccn1` (centres undefined), the GI50 in experiment [1], in experiment [4], in experiment [5], in experiment [6], in experiment [7] and in [8] was > 100 µM (inactive) in each case. Besides, in experiment [9], the GI50 was > 100 µM (inactive).

In the case of `N=C(c1ccccc1)N(c1ccccc1)c1ccccc1`, the GI50 in [1] is 42.5 µM (inactive); in experiment [3], 0.0415 µM (active); in [4] it was 63.5 µM (inactive); in experiment [5], 21.6 µM (inactive); in experiment [7], > 100 µM (inactive); in experiment [8], > 100 µM (inactive).

As for `CCOC(=O)/C(C(C)=O)=C1/N[C@H](C(=O)OCC)CS1`, the GI50 in experiment [2], in [3], in experiment [4], in experiment [5], in experiment [7] and in experiment [8] was > 100 µM (inactive) in each case. Moreover, the GI50 in [9] is > 100 µM (inactive).

`CC(=O)O[C@@]1(C)[C@@H](C)C(=O)O[C@@H]2CCN3CC=C(COC(=O)[C@]1(C)O)[C@H]23`: the GI50 in [1], in experiment [4], in [5], in [6], in [7] and in experiment [8] was > 100 µM (inactive) each time.

On to `O=CC1=CCCC2(C1)OCCO2`, for which the GI50 in experiment [1], in experiment [2], in experiment [4], in experiment [5], in experiment [6] and in [7] was > 100 µM (inactive) each time. Moreover, the GI50 in experiment [9] was > 100 µM (inactive).

For `O=S1(=O)CCC2=CC(C(F)(F)F)=CC(C(F)(F)F)=CN21`, the GI50 is 0.767 µM (active) in experiment [1]; 1.95 µM (inactive) in experiment [2]; 3.35 µM (inactive) in experiment [3]; 0.339 µM (active) in [4]; 0.435 µM (active) in experiment [5]; 1.37 µM (inactive) in experiment [6]. Further, the GI50 in [7] is 1.41 µM (inactive); in experiment [8], 2.11 µM (inactive); in [9] it was 1.79 µM (inactive).

Turning to `CC1(C)N=C(c2ccccn2)C(c2ccccn2)=NC1(C)C`, the GI50 in [1], in experiment [2], in [4], in experiment [5], in experiment [6] and in [7] was > 100 µM (inactive) throughout. The GI50 in experiment [8] and in experiment [9] was > 100 µM (inactive) each time.

With `N#CC(C(=O)/C(=N/NC(=O)c1ccccc1O)C(C#N)c1ccc(Br)cc1)c1ccc(Br)cc1` (centres undefined), the GI50 in experiment [1] was 13.4 µM (inactive); in experiment [2] it was 14.1 µM (inactive); in experiment [3], 8.41 µM (inactive); in experiment [4], 4.79 µM (inactive); in experiment [5] it was 3.32 µM (inactive); in experiment [6], 15.7 µM (inactive). For the same compound, the GI50 is 11.7 µM (inactive) in experiment [7], 15.4 µM (inactive) in experiment [8] and 13.7 µM (inactive) in experiment [9].

`CCOC(=N)CC(=O)Nc1cccc(Cl)c1`: the GI50 in experiment [1], in experiment [2], in experiment [4], in [5], in [7] and in experiment [8] was > 100 µM (inactive) throughout. For the same compound, in experiment [9], the GI50 was > 100 µM (inactive).

Turning to `Cc1cccc(-c2nnc3s/c(=C\c4ccc5c(c4)OCO5)c(=O)n23)c1`, the GI50 in experiment [1], in experiment [3], in experiment [4], in experiment [5], in experiment [6] and in experiment [7] was > 100 µM (inactive) throughout. In addition, the GI50 in experiment [8] and in [9] was > 100 µM (inactive) in each case.

Regarding `COc1ccccc1NC(=O)CC(=O)N1N=C(c2ccccc2)C(/N=N/c2ccc(Cl)cc2)C1=O` (centres undefined), the GI50 was 34.8 µM (inactive) in experiment [1]; 44.1 µM (inactive) in experiment [2]; 49.7 µM (inactive) in experiment [4]; 47.6 µM (inactive) in experiment [5]; 70.1 µM (inactive) in experiment [6]; 57.1 µM (inactive) in experiment [7]. Further, the GI50 in [8] is 71.8 µM (inactive); in [9], 38.5 µM (inactive).

As to `CN1C(=O)C(C)(C)C2(SC(C)(C)C2(C)C)N(C)C1=S` (centres undefined), the GI50 is > 100 µM (inactive) in experiment [1]; > 100 µM (inactive) in experiment [3]; > 100 µM (inactive) in experiment [4]; > 100 µM (inactive) in [5]; 67.3 µM (inactive) in experiment [6]; > 100 µM (inactive) in experiment [7].

Regarding `NC(=O)C(c1ccccc1)N1CCOCC1` (centres undefined), the GI50 in experiment [1], in experiment [3], in experiment [4], in [5], in experiment [6] and in experiment [7] was > 100 µM (inactive) throughout. Besides, the GI50 in experiment [8] is > 100 µM (inactive).

Regarding `Nc1c2ccccc2nc2c(C(=O)Nc3ccc(S(N)(=O)=O)cc3)cccc12`, the GI50 was 52.8 µM (inactive) in experiment [1]; > 100 µM (inactive) in experiment [4]; 45.2 µM (inactive) in experiment [5]; > 100 µM (inactive) in experiment [6]; 60 µM (inactive) in experiment [7]; > 100 µM (inactive) in [8]. In addition, in [9], the GI50 was 72.3 µM (inactive).

In the case of `[N-]=[N+]=C1C(=O)C2CC3CC1CC2C3` (centres undefined), the GI50 in experiment [1], in experiment [2], in [3], in [4], in [5] and in experiment [6] was > 100 µM (inactive) each time. The GI50 in experiment [7] and in experiment [8] was > 100 µM (inactive) in each case.

As to `CC1=C(C(=O)Nc2ccccc2C)C(c2ccccc2)C(C(=O)Nc2ccccc2C)=C(C)N1`, the GI50 was 49.5 µM (inactive) in experiment [1]; 36.6 µM (inactive) in experiment [3]; 41 µM (inactive) in experiment [4]; 30.5 µM (inactive) in [5]; 30.4 µM (inactive) in experiment [6]; 37.2 µM (inactive) in experiment [7]. Besides, the GI50 was 42.2 µM (inactive) in [8] and 23.1 µM (inactive) in experiment [9].

With `COc1ccc(/C=C(/C(=O)O)c2cc(OC)c(OC)c(OC)c2)cc1`, the GI50 in [1] was 31.6 µM (inactive); in [2], 46.8 µM (inactive); in experiment [4] it was 41.2 µM (inactive); in experiment [5], 69.2 µM (inactive); in experiment [6] it was 40.2 µM (inactive); in experiment [7] it was 79.8 µM (inactive). The GI50 in experiment [8] was 22.2 µM (inactive).

In the case of `CC[C@@]1(O)C(=O)OCc2c1cc1n(c2=O)Cc2cc3cc(O)ccc3nc2-1` [HYDROXYCAMPTOTHECIN], the GI50 in experiment [3] was 0.109 µM (active); in experiment [4], 1.2 µM (inactive); in experiment [5], 0.15 µM (active); in [6], 0.0136 µM (active); in [7], 0.0513 µM (active); in experiment [8] it was 0.0834 µM (active). Moreover, the GI50 in [9] is 0.0262 µM (active).

These data come from ChEMBL document CHEMBL1201862, “PubChem BioAssay data set” (2004).
